The record followed here is US8642770B2, “Indole derivative” (Takeda Pharmaceutical Company Limited, priority 2010, dated 2014).

Each structure is given as a SMILES string.

As for `Cc1c(CNCC2CCOCC2)n(C)c2c(F)c(NC(=O)c3ccc(OC[C@@H]4CCCO4)cc3)ccc12` [Example 113, N-(7-fluoro-1,3-dimethyl-2-{[(tetrahydro-2H-pyran-4-ylmethyl)amino]methyl}-1H-indol-6-yl)-4-[(2S)-tetrahydrofuran-2-ylmethoxy]benzamide], the melting point was in the range of 132 to 134 °C.
In the case of `Cc1c(NC(=O)c2ccc(OC[C@@H]3CCCO3)cc2)ccc2c1cc(CNCC(C)C)n2C` [Example 54, N-(1,4-dimethyl-2-{[(2-methylpropyl)amino]methyl}-1H-indol-5-yl)-4-[(2S)-tetrahydrofuran-2-ylmethoxy]benzamide] it was 162 °C.
The figure for `Cc1c(CNCC2CCOCC2)n(C)c2ccc(NC(=O)c3ccc(OC[C@@H]4CCCO4)cc3)cc12` [Example 35, N-(1,3-dimethyl-2-{[(tetrahydro-2H-pyran-4-ylmethyl)amino]methyl}-1H-indol-5-yl)-4-[(2S)-tetrahydrofuran-2-ylmethoxy]benzamide] is 185 to 186 °C; for `Cc1c(NC(=O)c2ccc(OC[C@@H]3CCCO3)cc2F)ccc2c1cc(CN[C@H]1CC[C@](C)(O)CC1)n2C` [Example 59, 2-fluoro-N-(2-{[(trans-4-hydroxy-4-methylcyclohexyl)amino]methyl}-1,4-dimethyl-1H-indol-5-yl)-4-[(2S)-tetrahydrofuran-2-ylmethoxy]benzamide] it is 124 °C; for `Cn1c(CNC[C@H]2CCCO2)cc2cc(NC(=O)c3ccc(OCC4CC4)cc3)ccc21` [Example 10, 4-(cyclopropylmethoxy)-N-[1-methyl-2-({[(2R)-tetrahydrofuran-2-ylmethyl]amino}methyl)-1H-indol-5-yl]benzamide] it is 138 to 139 °C.
The figure for `Cc1c(NC(=O)c2ccc(OC[C@@H]3CCCO3)cc2)ccc2cc(CNCC(C)(C)O)n(C)c12` [Example 82, N-(2-{[(2-hydroxy-2-methylpropyl)amino]methyl}-1,7-dimethyl-1H-indol-6-yl)-4-[(2S)-tetrahydrofuran-2-ylmethoxy]benzamide] is 197 to 200 °C.
Regarding `Cc1c(NC(=O)c2ccc(OC[C@@H]3CCCO3)cc2)ccc2cc(CNCC(C)C)[nH]c12` [Example 72, N-(7-methyl-2-{[(2-methylpropyl)amino]methyl}-1H-indol-6-yl)-4-[(2S)-tetrahydrofuran-2-ylmethoxy]benzamide], the melting point is 159 °C.
The figure for `Cc1c(NC(=O)c2ccc(OCC3CC3)cc2)ccc2[nH]c(CNCC(C)(C)O)cc12` [Example 44, 4-(cyclopropylmethoxy)-N-(2-{[(2-hydroxy-2-methylpropyl)amino]methyl}-4-methyl-1H-indol-5-yl)benzamide] is 186 °C.
The figure for `Cc1c(NC(=O)c2ccc(OC[C@@H]3CCCO3)cc2)ccc2c1cc(CN[C@H]1CC[C@](C)(O)CC1)n2C.Cl` is 278 °C.
The figure for `Cc1c(NC(=O)c2ccc(OCC3CC3)cc2)ccc2cc(CN[C@H]3CC[C@](C)(O)CC3)n(C)c12` [Example 79, 4-(cyclopropylmethoxy)-N-(2-{[(trans-4-hydroxy-4-methylcyclohexyl)amino]methyl}-1,7-dimethyl-1H-indol-6-yl)benzamide] is 167 °C.
As for `Cn1c(CNC2CCC(C)(O)CC2)cc2cc(NC(=O)c3ccc(OC[C@@H]4CCCO4)cc3)ccc21` (stereo partly drawn) [Example 18, N-(2-{[(trans-4-hydroxy-4-methylcyclohexyl)amino]methyl}-1-methyl-1H-indol-5-yl)-4-[(2S)-tetrahydrofuran-2-ylmethoxy]benzamide], the melting point is 154 °C.
The figure for `Cc1c(NC(=O)c2ccc(OC[C@@H]3CCCO3)cc2F)ccc2cc(CNCC(C)(C)O)n(C)c12` [Example 89, 2-fluoro-N-(2-{[(2-hydroxy-2-methylpropyl)amino]methyl}-1,7-dimethyl-1H-indol-6-yl)-4-[(2S)-tetrahydrofuran-2-ylmethoxy]benzamide] is 132 to 133 °C; for `Cc1c(NC(=O)c2ccc(C#CC3(O)CC3)cc2)ccc2cc(CNCC(C)C)n(C)c12` [Example 90, N-(1,7-dimethyl-2-{[(2-methylpropyl)amino]methyl}-1H-indol-6-yl)-4-[(1-hydroxycyclopropyl)ethynyl]benzamide] it is 186 °C.
The figure for `Cn1c(CNCC(C)(C)O)cc2cc(NC(=O)c3ccc(OCC4CC4)cc3)ccc21` [Example 5, 4-(cyclopropylmethoxy)-N-(2-{[(2-hydroxy-2-methylpropyl)amino]methyl}-1-methyl-1H-indol-5-yl)benzamide] is 188 to 189 °C; for `Cc1c(NC(=O)c2ccc(C#CC3(O)CCC3)cc2)ccc2cc(CNCC3CCOCC3)n(C)c12` [Example 94, N-(1,7-dimethyl-2-{[(tetrahydro-2H-pyran-4-ylmethyl)amino]methyl}-1H-indol-6-yl)-4-[(1-hydroxycyclobutyl)ethynyl]benzamide] it is 202 to 204 °C; for `Cc1c(CNCC2CCOCC2)n(C)c2ccc(NC(=O)c3ccc(OCC4CC4)cc3)cc12` [Example 40, 4-(cyclopropylmethoxy)-N-(1,3-dimethyl-2-{[(tetrahydro-2H-pyran-4-ylmethyl)amino]methyl}-1H-indol-5-yl)benzamide] it is 176 to 177 °C.
The figure for `Cc1c(NC(=O)c2ccc(OC[C@@H]3CCCO3)cc2)ccc2cc(CNC3CCCC3)[nH]c12` [Example 73, N-{2-[(cyclopentylamino)methyl]-7-methyl-1H-indol-6-yl}-4-[(2S)-tetrahydrofuran-2-ylmethoxy]benzamide] is 159 to 163 °C; for `Cc1c(CNCC2CCOCC2)[nH]c2ccc(NC(=O)c3ccc(OC[C@@H]4CCCO4)cc3)cc12` [Example 33, N-(3-methyl-2-{[(tetrahydro-2H-pyran-4-ylmethyl)amino]methyl}-1H-indol-5-yl)-4-[(2S)-tetrahydrofuran-2-ylmethoxy]benzamide] it is 146 to 147 °C.
The molecule `Cc1c(NC(=O)c2ccc(OCC3CC3)cc2)ccc2cc(CN3CCC(C)(O)CC3)[nH]c12` [Example 68, 4-(cyclopropylmethoxy)-N-{2-[(4-hydroxy-4-methylpiperidin-1-yl)methyl]-7-methyl-1H-indol-6-yl}benzamide] displayed a melting point of 195 °C.
`Cc1c(CNCC(C)C)[nH]c2c(C)c(NC(=O)c3ccc(OC[C@@H]4CCCO4)cc3)ccc12` [Example 96, N-(2-{[(2-methylpropyl)amino]methyl}-3,7-dimethyl-1H-indol-6-yl)-4-[(2S)-tetrahydrofuran-2-ylmethoxy]benzamide] yielded a melting point of 118 to 119 °C.
As to `Cc1c(NC(=O)c2ccc(OC[C@@H]3CCCO3)cc2F)ccc2c1cc(CNCC1CCOCC1)n2C` [Example 62, N-(1,4-dimethyl-2-{[(tetrahydro-2H-pyran-4-ylmethyl)amino]methyl}-1H-indol-5-yl)-2-fluoro-4-[(2S)-tetrahydrofuran-2-ylmethoxy]benzamide], the melting point was found to be 149 °C.
Molecule `CCCNCc1cc2c(C)c(NC(=O)c3ccc(OC[C@@H]4CCCO4)cc3)ccc2n1C` [Example 57, N-{1,4-dimethyl-2-[(propylamino)methyl]-1H-indol-5-yl}-4-[(2S)-tetrahydrofuran-2-ylmethoxy]benzamide] had a melting point of 225 °C.
The figure for `Cc1c(NC(=O)c2ccc(OC[C@@H]3CCCO3)cc2)ccc2cc(CNCC(C)(C)C)[nH]c12` [Example 69, N-(2-{[(2,2-dimethylpropyl)amino]methyl}-7-methyl-1H-indol-6-yl)-4-[(2S)-tetrahydrofuran-2-ylmethoxy]benzamide] is 168 °C; for `Cc1c(NC(=O)c2ccc(OC[C@@H]3CCCO3)cc2)ccc2cc(CNCC(C)C)n(C)c12` [Example 85, N-(1,7-dimethyl-2-{[(2-methylpropyl)amino]methyl}-1H-indol-6-yl)-4-[(2S)-tetrahydrofuran-2-ylmethoxy]benzamide] it is 183 °C; for `Cc1c(CNCC(C)C)n(C)c2ccc(NC(=O)c3ccc(OC[C@@H]4CCCO4)cc3)cc12` [Example 34, N-(2-{[(2-methylpropyl)amino]methyl}-1,3-dimethyl-1H-indol-5-yl)-4-[(2S)-tetrahydrofuran-2-ylmethoxy]benzamide] it is 145 to 146 °C.
The figure for `Cc1c(CNCC2CCOCC2)n(C)c2c(C)c(NC(=O)c3ccc(OC[C@@H]4CCCO4)cc3)ccc12` [Example 107, 4-[(2S)-tetrahydrofuran-2-ylmethoxy]-N-(1,3,7-trimethyl-2-{[(tetrahydro-2H-pyran-4-ylmethyl)amino]methyl}-1H-indol-6-yl)benzamide] is 173 to 174 °C; for `Cc1c(CNCC(C)C)n(C)c2ccc(NC(=O)c3ccc(OCC4CC4)cc3)cc12` [Example 39, 4-(cyclopropylmethoxy)-N-(2-{[(2-methylpropyl)amino]methyl}-1,3-dimethyl-1H-indol-5-yl)benzamide] it is 142 to 143 °C.
In the case of `Cn1c(CNCC(C)(C)S(C)(=O)=O)cc2cc(NC(=O)c3ccc(OCC4CC4)cc3)ccc21` [Example 7, 4-(cyclopropylmethoxy)-N-[1-methyl-2-({[2-methyl-2-(methylsulfonyl)propyl]amino}methyl)-1H-indol-5-yl]benzamide] it was 168 to 169 °C; in that of `Cc1c(NC(=O)c2ccc(OC[C@@H]3CCCO3)cc2F)ccc2cc(CN[C@H]3CC[C@](C)(O)CC3)[nH]c12` [Example 77, 2-fluoro-N-(2-{[(trans-4-hydroxy-4-methylcyclohexyl)amino]methyl}-7-methyl-1H-indol-6-yl)-4-[(2S)-tetrahydrofuran-2-ylmethoxy]benzamide], 152 to 153 °C; in that of `Cc1c(CNCC(C)(C)C)n(C)c2ccc(NC(=O)c3ccc(OCC4CC4)cc3)cc12` [Example 41, 4-(cyclopropylmethoxy)-N-(2-{[(2,2-dimethylpropyl)amino]methyl}-1,3-dimethyl-1H-indol-5-yl)benzamide], 169 to 170 °C.
With `Cc1c(NC(=O)c2ccc(C#CC3(O)CC3)cc2)ccc2cc(CNCC(C)(C)C)n(C)c12` [Example 91, N-(2-{[(2,2-dimethylpropyl)amino]methyl}-1,7-dimethyl-1H-indol-6-yl)-4-[(1-hydroxycyclopropyl)ethynyl]benzamide], the melting point was in the range of 182 to 183 °C.
